In PubChem BioAssay (NCI):
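The compound was tested at five concentrations on cells cultured in 96-well plates, with a 48-hour exposure period. TGI marks complete inhibition of growth.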 Where a SMILES comes first, the peptide text is derived from it. The star is where a group is joined. Cbz = O=C(OCc1ccccc1)*

Key:
Experiment in all cases: DTP human tumour cell line panel, 48 h
786-0 renal = tested on: 786-0 renal
A549 NSCLC = tested on: A549 NSCLC
CAKI-1 renal = tested on: CAKI-1 renal
COLO 205 colon = tested on: COLO 205 colon
HCT-116 colon = tested on: HCT-116 colon
MDA-MB-435 = tested on: MDA-MB-435
MOLT-4 leukemia = tested on: MOLT-4 leukemia
NCI-H522 lung = tested on: NCI-H522 lung
OVCAR-3 ovarian = tested on: OVCAR-3 ovarian
SW-620 colon = tested on: SW-620 colon
U251 CNS = tested on: U251 CNS
UO-31 renal = tested on: UO-31 renal

Structure (SMILES)	TGI (786-0 renal)	TGI (A549 NSCLC)	TGI (CAKI-1 renal)	TGI (COLO 205 colon)	TGI (HCT-116 colon)	TGI (MDA-MB-435)	TGI (MOLT-4 leukemia)	TGI (NCI-H522 lung)	TGI (OVCAR-3 ovarian)	TGI (SW-620 colon)	TGI (U251 CNS)	TGI (UO-31 renal)
COC(=O)/C(=C(/C)c1ccco1)P(=O)(OC)OC	> 100 µM	> 100 µM	> 100 µM	> 100 µM	> 100 µM	> 100 µM	> 100 µM	> 100 µM	> 100 µM	> 100 µM	> 100 µM	–
O=C1CC(Nc2ccccc2)c2c(Cl)sc(Cl)c21 (centres undefined)	0.784 µM	6 µM	1.36 µM	2.68 µM	2.5 µM	3.17 µM	5.18 µM	0.315 µM	–	–	3.32 µM	2.57 µM
CC(C)NC1CCCCC2c3ccccc3C12O (centres undefined)	> 100 µM	> 100 µM	–	> 100 µM	> 100 µM	–	> 100 µM	> 100 µM	–	> 100 µM	> 100 µM	> 100 µM
COc1ccc(/C=C2\C(=O)N(C(=O)c3ccc(NC(C)=O)cc3)N=C2C)cc1OC	> 100 µM	> 100 µM	> 100 µM	> 100 µM	> 100 µM	–	> 100 µM	> 100 µM	> 100 µM	> 100 µM	–	> 100 µM
CCN(CC)P(=O)(c1ccc2c(c1)OCCOCCOCCOCCO2)N(CC)CC	> 100 µM	> 100 µM	> 100 µM	> 100 µM	> 100 µM	> 100 µM	> 100 µM	> 100 µM	–	> 100 µM	–	> 100 µM
Cn1c2ccccc2n2c(=O)c(-c3ccc(Cl)cc3)nnc12	> 100 µM	> 100 µM	> 100 µM	> 100 µM	> 100 µM	> 100 µM	> 100 µM	> 100 µM	–	> 100 µM	> 100 µM	> 100 µM
CCOC(=O)c1nc2ccccc2nc1Nc1cc(OC)c(OC)c(OC)c1	> 100 µM	> 100 µM	> 100 µM	> 100 µM	> 100 µM	> 100 µM	> 100 µM	> 100 µM	> 100 µM	–	> 100 µM	> 100 µM
CN(C)N1C(=C(C#N)C#N)C(c2ccccc2)CC1C#N (centres undefined)	> 100 µM	> 100 µM	> 100 µM	> 100 µM	> 100 µM	> 100 µM	> 100 µM	> 100 µM	–	> 100 µM	> 100 µM	> 100 µM
Cc1cc2c3c(c1)S(=O)(=O)c1cc(Cl)ccc1N3CCC2	> 100 µM	> 100 µM	> 100 µM	> 100 µM	> 100 µM	> 100 µM	> 100 µM	–	> 100 µM	> 100 µM	–	> 100 µM
C[C@]12C(=O)OC[C@H](c3ccccc3)N1C(=O)N(Cc1ccccc1)[C@@H]2CO	> 100 µM	> 100 µM	> 100 µM	> 100 µM	> 100 µM	> 100 µM	> 100 µM	–	> 100 µM	> 100 µM	–	> 100 µM
CCO/C(O)=c1/s/c(=C2/SC(=S)N(c3ccc(C)cc3)C2=O)n(-c2ccccc2)c1=N	77.4 µM	> 100 µM	–	> 100 µM	> 100 µM	> 100 µM	> 100 µM	> 100 µM	> 100 µM	> 100 µM	> 100 µM	> 100 µM
Fc1ccc(F)c(C=NC23CC4CC(CC(C4)C2)C3)c1	> 10 µM	> 10 µM	> 10 µM	> 10 µM	> 10 µM	–	> 10 µM	> 10 µM	> 10 µM	> 10 µM	> 10 µM	> 10 µM
COC(=O)c1sc2nc(Nc3ccccc3)c(=Nc3ccccc3)sc2c1C	> 100 µM	> 100 µM	> 100 µM	> 100 µM	> 100 µM	> 100 µM	> 100 µM	> 100 µM	–	> 100 µM	> 100 µM	> 100 µM
CN1CCN(c2n[nH]c(=O)c3c2nnn3Cc2ccccc2)CC1	> 100 µM	> 100 µM	> 100 µM	> 100 µM	> 100 µM	> 100 µM	> 100 µM	–	> 100 µM	–	> 100 µM	> 100 µM
C/C(=N/NC(=S)N1CCCCCC1)c1cccc(/C(C)=N\NC(=S)N2CCCCCC2)n1	2.63 µM	4.86 µM	–	3.23 µM	3.48 µM	3.36 µM	6.34 µM	6.42 µM	2.59 µM	3.55 µM	4.77 µM	3.39 µM
C[C@]12CCC(=O)C=C1CC[C@@H]1[C@@H]2CC[C@]2(C)C(=O)/C(=C/c3ccc([N+](=O)[O-])cc3)C[C@@H]12	> 100 µM	> 100 µM	> 100 µM	> 100 µM	> 100 µM	> 100 µM	> 100 µM	> 100 µM	> 100 µM	> 100 µM	–	> 100 µM
CCN(CC)c1c(-c2c(OC(C)C)c(=O)c2=O)c(=O)n2ccsc2c1OC(C)=O	> 100 µM	–	> 100 µM	> 100 µM	> 100 µM	> 100 µM	> 100 µM	> 100 µM	> 100 µM	> 100 µM	> 100 µM	> 100 µM
CN(C)c1ccc(-c2c(C#N)c(-c3ccccc3)n(NS(=O)(=O)c3ccccc3)c(=O)c2C#N)cc1	> 100 µM	> 100 µM	> 100 µM	> 100 µM	> 100 µM	> 100 µM	55.8 µM	> 100 µM	–	> 100 µM	> 100 µM	–
CCOC(=O)CCC(NC(=O)C(CC(=O)OC)NC(=O)OCc1ccccc1)C(=O)NC(CC(=O)OC)C(=O)NC(CCC(=O)OCC)C(=O)NC(CC(=O)OC)C(=O)NC(CCC(=O)OCC)C(=O)NC(CC(=O)OCC)C(=O)OCC (centres undefined) (Cbz-D(OMe)E(OEt)D(OMe)E(OEt)D(OMe)E(OEt)D(OEt)-OEt; configuration not given here)	> 100 µM	> 100 µM	–	–	> 100 µM	> 100 µM	> 100 µM	> 100 µM	> 100 µM	> 100 µM	> 100 µM	> 100 µM
CC(C)C(Sc1nc(-c2ccccc2)c(-c2ccccc2)[nH]1)C(=O)N/N=C/c1ccc(Cl)cc1 (centres undefined)	40.8 µM	82.3 µM	69.9 µM	35.5 µM	29.4 µM	–	–	41.7 µM	35.5 µM	68.2 µM	39.5 µM	47.8 µM
